Measured values from patent US11389415B2, “Methods of regulating cannabinoid receptor activity-related disorders and diseases” (The United States of America as represented by the …, priority 2012, dated 2022).

Test system: rat C6 glioma xenografts
Assay: Gene expression profiling (microarray, GO term and PAGE gene set analysis) in rat C6 glioma xenografts
Assay type: in vivo, mouse
Conditions: MNF_Control
Description: Analysis of gene expression in rat C6 glioma xenografts. Total RNA was isolated from rat C6 glioma xenografts harvested from vehicle and MNF-treated mice (n=3 per group, cohort 1). This analysis was repeated in a second cohort of animals (n=3 per group, cohort 2). Total cellular RNA was extracted using an RNeasy plus mini kit (QIAGEN, Valencia, Calif.), and its quality was assessed using an Agilent BioAnalyzer using RNA 6000 Nano Chips (Agilent Technologies, Santa Clara, Calif.). Transcriptional profiling was determined using Illumina Sentrix BeadChips (Illumina, San Diego, Calif.). Total RNA was used to generate biotin-labeled cRNA with the Illumina TotalPrep RNA Amplification Kit. In short, 0.5 ug of total RNA was first converted into single-stranded cDNA with reverse transcriptase using an oligo-dT primer containing the T7 RNA polymerase promoter site and then copied to produce double-stranded cDNA molecules. The double-stranded cDNA was cleaned and concentrated with the supplied columns and used in an overnight in-vitro transcription reaction where single-stranded RNA (cRNA) was generated incorporating biotin-16-UTP. A total of 0.75 μg of biotin-labeled cRNA was hybridized at 58° C. for 16 hours to Illumina's Sentrix Rat Ref-12 Expression BeadChips. Each BeadChip has ˜22,000 well-annotated RefSeq transcripts with approximately 30-fold redundancy. The arrays were washed, blocked and the labeled cRNA was detected by staining with streptavidin-Cy3. Hybridized arrays were scanned using an Illumina BeadStation 500× Genetic Analysis Systems scanner and the image data extracted using Illumina's GenomeStudio software, version 1.6.1. For statistical analysis, the expression data were filtered to include only probes with a consistent signal on each chip and an Illumina detecton p value <0.02.
Correlation analysis, sample clustering analysis and principal component analysis was performed to identify/exclude any possible outliers. The resulting dataset was next analyzed with DIANE 6.0, a spreadsheet-based microarray analysis program using value statistics for Z-Score reliability below 0.05; and mean background-corrected signal intensity greater than zero.
Gene set enrichment analysis use gene expression values or gene expression change values for all of the genes in the microarray. Parametric analysis of gene set enrichment (PAGE) was used using the WEB-PAGE GSA tool for gene set analysis. Gene Sets include the MSIG database, Gene Ontology Database, GAD human disease and mouse phenotype gene sets were used to explore functional level changes. Gene-gene interaction was also analyzed using the INGENUITY® Pathway Analysis (IPA) system (INGENUITY® Systems).

COc1ccc(C[C@@H](C)NC[C@H](O)c2cc(O)cc(O)c2)c2ccccc12 [(R,R′)-MNF, (R,R′)-4′-methoxy-1-naphthylfenoterol] was tested, and the “Z score, ADIP_DIFF_CLUSTERS” value (cohort 1) was −4.6054, the “Z score, ATRBRCAPATHWAY” value (cohort 1) was −1.8815 and the “Z score, BRCA_PROGNOSIS_NEG” value (cohort 1) was −3.2974. The “Z score, BRENTANI_REPAIR” value (cohort 1) was −3.8568, the “Z score, CANCER_UNDIFFERENTIATED_META_UP” value (cohort 1) was −4.8288 and the “Z score, CELL_CYCLE” value (cohort 1) was −5.0187. The “Z score, CELL_CYCLE_KEGG” value (cohort 1) was −4.1925, the “Z score, CMV_IE86_UP” value (cohort 1) was −6.1497 and the “Z score, CROONQUEST_IL6_STARVE_UP” value (cohort 1) was −6.5055. For the same molecule, the “Z score, CROONQUIST_IL6_RAS_DN” value (cohort 1) was −6.7147, the “Z score, DAC_FIBRO_DN” value (cohort 1) was −4.4476 and the “Z score, DNA_REPLICATION_REACTOME” value (cohort 1) was −3.8683. For the same molecule, the “Z score, DOX_RESIST_GASTRIC_UP” value (cohort 1) was −5.8557, the “Z score, E2F1_DNA_UP” value (cohort 1) was −3.6781 and the “Z score, GAY_YY1_DN” value (cohort 1) was −7.6370. The “Z score, GOLDRATH_HP” value (cohort 1) was −2.4433, the “Z score, HDACI_COLON_BUT12 HRS_UP” value (cohort 1) was 5.3212 and the “Z score, HDACI_COLON_BUT16HRS_UP” value (cohort 1) was 3.6723. For the same molecule, the “Z score, HDACI_COLON_BUT24HRS_UP” value (cohort 1) was 3.0864, the “Z score, HDACI_COLON_TSABUT_UP” value (cohort 1) was 4.1465 and the “Z score, HIPPOCAMPUS_DEVELOPMENT_POSTNATAL” value (cohort 1) was 3.6731. For the same molecule, the “Z score, HOFFMANN_BIVSBII_BI_TABLE2” value (cohort 1) was −5.1273, the “Z score, HYPOPHYSECTOMY_RAT_DN” value (cohort 1) was 3.6187 and the “Z score, IDX_TSA_UP_CLUSTER3” value (cohort 1) was −6.1057. For the same molecule, the “Z score, IRITANI_ADPROX_LYMPH” value (cohort 1) was −5.1468, the “Z score, KAMMINGA_EZH2_TARGETS” value (cohort 1) was −5.3211 and the “Z score, KENNY_WNT_UP” value (cohort 1) was −4.0135. For the same molecule, the “Z score, LAMB_CYCLIN_D3_GLOCUS” value (cohort 1) was −2.8637, the “Z score, LEE_TCELLS2_UP” value (cohort 1) was −4.1051 and the “Z score, LEE_TCELLS3_UP” value (cohort 1) was −7.2409. The “Z score, LI_FETAL_VS_WT_KIDNEY_DN” value (cohort 1) was −5.4447, the “Z score, MANALO_HYPOXIA_DN” value (cohort 1) was −3.2723 and the “Z score, MIDDLEAGE_DN” value (cohort 1) was −3.6696. For the same molecule, the “Z score, MOREAUX_TACI_HI_IN_PPC_UP” value (cohort 1) was −2.9881, the “Z score, MOREAUX_TACI_HI_VS_LOW_DN” value (cohort 1) was −4.3721 and the “Z score, OLDAGE_DN” value (cohort 1) was −4.5391. For the same molecule, the “Z score, P21_P53_ANY_DN” value (cohort 1) was −5.0275, the “Z score, PEART_HISTONE_DN” value (cohort 1) was −2.5055 and the “Z score, PODI_KO_UP” value (cohort 1) was −3.9363. The “Z score, PRMT5_KD_UP” value (cohort 1) was −9.3903, the “Z score, REN_E2F1_TARGETS” value (cohort 1) was −2.9150 and the “Z score, SASAKI_ATL_UP” value (cohort 1) was −5.0963. The “Z score, SASAKI_TCELL_LYMPHOMA_VS_CD4_UP” value (cohort 1) was −5.0963, the “Z score, SERUM_FIBROBLAST_CELLCYCLE” value (cohort 1) was −7.2985 and the “Z score, SHEPARD_BMYB_MORPHOLINO_DN” value (cohort 1) was −4.3350. For the same molecule, the “Z score, SHEPARD_CRASH_AND_BURN_MUT_VS_WT_DN” value (cohort 1) was −3.9994, the “Z score, SHEPARD_GENES_COMMON_BW_CB_MO” value (cohort 1) was −4.0300 and the “Z score, STEMCELL_NEURAL_UP” value (cohort 1) was −6.0983. For the same molecule, the “Z score, TARTE_MATURE_PC” value (cohort 1) was 3.6636, the “Z score, TARTE_PLASMA_BLASTIC” value (cohort 1) was −4.8905 and the “Z score, VERNELL_PRB_CLSTR1” value (cohort 1) was −3.4691. The “Z score, YU_CMYC_UP” value (cohort 1) was −4.4689, the “Z score, ZHAN_MM_CD138_PR_VS_REST” value (cohort 1) was −6.1404 and the “Z score, ADIP_DIFF_CLUSTERS” value (cohort 2) was −6.8850. For the same molecule, the “Z score, ATRBRCAPATHWAY” value (cohort 2) was −2.9977, the “Z score, BRCA_PROGNOSIS_NEG” value (cohort 2) was −5.4682 and the “Z score, BRENTANI_REPAIR” value (cohort 2) was −2.9453. The “Z score, CANCER_UNDIFFERENTIATED_META_UP” value (cohort 2) was −6.2847, the “Z score, CELL_CYCLE” value (cohort 2) was −7.4222 and the “Z score, CELL_CYCLE_KEGG” value (cohort 2) was −7.0955. For the same molecule, the “Z score, CMV_IE86_UP” value (cohort 2) was −6.5954, the “Z score, CROONQUEST_IL6_STARVE_UP” value (cohort 2) was −9.0059 and the “Z score, CROONQUIST_IL6_RAS_DN” value (cohort 2) was −7.7040. The “Z score, DAC_FIBRO_DN” value (cohort 2) was −4.9523, the “Z score, DNA_REPLICATION_REACTOME” value (cohort 2) was −6.5700 and the “Z score, DOX_RESIST_GASTRIC_UP” value (cohort 2) was −8.6145. The “Z score, E2F1_DNA_UP” value (cohort 2) was −4.4885, the “Z score, GAY_YY1_DN” value (cohort 2) was −4.7456 and the “Z score, GOLDRATH_HP” value (cohort 2) was −2.2875. The “Z score, HDACI_COLON_BUT12 HRS_UP” value (cohort 2) was 3.6676, the “Z score, HDACI_COLON_BUT16HRS_UP” value (cohort 2) was 3.4287 and the “Z score, HDACI_COLON_BUT24HRS_UP” value (cohort 2) was 3.3154. The “Z score, HDACI_COLON_TSABUT_UP” value (cohort 2) was 3.4480, the “Z score, HIPPOCAMPUS_DEVELOPMENT_POSTNATAL” value (cohort 2) was 10.3312 and the “Z score, HOFFMANN_BIVSBII_BI_TABLE2” value (cohort 2) was −7.7114. The “Z score, HYPOPHYSECTOMY_RAT_DN” value (cohort 2) was 3.9294, the “Z score, IDX_TSA_UP_CLUSTER3” value (cohort 2) was −10.1593 and the “Z score, IRITANI_ADPROX_LYMPH” value (cohort 2) was −3.3728. For the same molecule, the “Z score, KAMMINGA_EZH2_TARGETS” value (cohort 2) was −7.2448, the “Z score, KENNY_WNT_UP” value (cohort 2) was −5.5586 and the “Z score, LAMB_CYCLIN_D3_GLOCUS” value (cohort 2) was −4.3054. For the same molecule, the “Z score, LEE_TCELLS2_UP” value (cohort 2) was −5.6671, the “Z score, LEE_TCELLS3_UP” value (cohort 2) was −8.0339 and the “Z score, LI_FETAL_VS_WT_KIDNEY_DN” value (cohort 2) was −9.1715. The “Z score, MANALO_HYPOXIA_DN” value (cohort 2) was −6.1956, the “Z score, MIDDLEAGE_DN” value (cohort 2) was −7.7600 and the “Z score, MOREAUX_TACI_HI_IN_PPC_UP” value (cohort 2) was −3.8456. For the same molecule, the “Z score, MOREAUX_TACI_HI_VS_LOW_DN” value (cohort 2) was −3.2936, the “Z score, OLDAGE_DN” value (cohort 2) was −7.1043 and the “Z score, P21_P53_ANY_DN” value (cohort 2) was −7.4300. For the same molecule, the “Z score, PEART_HISTONE_DN” value (cohort 2) was −5.2170, the “Z score, PODI_KO_UP” value (cohort 2) was −4.3565 and the “Z score, PRMT5_KD_UP” value (cohort 2) was −5.4620. For the same molecule, the “Z score, REN_E2F1_TARGETS” value (cohort 2) was −3.5319, the “Z score, SASAKI_ATL_UP” value (cohort 2) was −5.5299 and the “Z score, SASAKI_TCELL_LYMPHOMA_VS_CD4_UP” value (cohort 2) was −5.5299. The “Z score, SERUM_FIBROBLAST_CELLCYCLE” value (cohort 2) was −10.6997, the “Z score, SHEPARD_BMYB_MORPHOLINO_DN” value (cohort 2) was −4.7947 and the “Z score, SHEPARD_CRASH_AND_BURN_MUT_VS_WT_DN” value (cohort 2) was −4.0540.
